# Laboratory results taken from patent US6495571B1, “Pyridine compounds, use and preparation thereof” (Southern Research Institute, priority 1999, dated 2002).
# Where two headings read alike, the source gives them in different places. Marks after values point to notes of the source that are not given here.
# Columns and labels:
# [1] = tested on: human MX-1 mammary tumor (sc, 30-40 mg fragments); assay: In vivo antitumor activity, s.c.-implanted MX-1 xenograft; design: species or system Athymic mice (Ncr-nu); details: for IP dosage marked (LD50): Days 12-16, sc MX-1 bearing mice
# [2] = tested on: human MX-1 mammary tumor (ic, 10^6 cells); assay: In vivo antitumor activity, i.c.-implanted MX-1 xenograft; details: for Median % ILS (dying mice only) / Tumor-Free-Surv/Total: Days 1-5; for activity against i.c.-implanted tumor (in words): in comparison to PEN and DM-PEN; for Median % ILS (based on dying mice only) / Survivors: optimal doses (LD10 or less), schedule QD1-5, administered LP.
# [3] = tested on: P388/CPA (cyclophosphamide-resistant) leukemia; type: in vivo, CD2F1 female mice; details: Q1D × 5 (1)
# [4] = Cytotoxicity in vitro; type: cell-based
# [5] = tested on: P388/0 murine leukemia
# [6] = tested on: P388/L-PAM (melphalan-resistant) leukemia
# [7] = tested on: P388/BCNU (carmustine-resistant) leukemia; assay: Antitumor activity against IP-implanted P388/BCNU leukemia; details: Q1D × 5 (1)
# [8] = oral (gavage) 135 mg/kg/dose, Days 12-16
# [9] = oral (gavage) 135 mg/kg/dose, Days 13-17
# [10] = IP 60.0 mg/kg/dose, Q1D × 5 (1)
# [11] = IP 90.0 mg/kg/dose, Q1D × 5 (1)
# [12] = IP 135.0 mg/kg/dose, Q1D × 5 (1)
# [13] = IP 15.0 mg/kg/dose, Q1D × 1 (1)
# [14] = IP 20.0 mg/kg/dose, Q1D × 1 (1)
structure (smiles),measurement,setting,value
COc1nc(C(Cl)(Cl)Cl)c(Cl)c(OC(=O)c2ccco2)c1Cl [DM-F-PEN],T-C,"[1]; IP 90 mg/kg/dose, Days 12-16",>41.2 days
same,Tumor-Free-Surv/Total,"[1]; IP 90 mg/kg/dose, Days 12-16",5/5
same,Median % ILS (dying mice only),[2]; IP 135 mg/kg/dose,+108%
same,Tumor-Free-Surv/Total,[2]; IP 135 mg/kg/dose,2/5
same,activity against i.c.-implanted tumor (in words),[2],significant activity
same,Median % ILS (based on dying mice only),[2],108^c %
same,Survivors,[2],2/5
COc1nc(C(Cl)(Cl)Cl)c(Cl)c(OC(=O)CI)c1Cl [DM-IA-PEN],T-C,"[1]; IP 60 mg/kg/dose, Days 12-16",20.3 days
same,Tumor-Free-Surv/Total,"[1]; IP 60 mg/kg/dose, Days 12-16",1/5
same,IP dosage marked (LD50),[1],60 (LD50) mg/kg/dose
COc1nc(C(Cl)(Cl)Cl)c(Cl)c(OC(=O)c2ccncc2)c1Cl [DM-IN-PEN],T-C,"[1]; IP 90 mg/kg/dose, Days 12-16",>38.6 days
same,Tumor-Free-Surv/Total,"[1]; IP 90 mg/kg/dose, Days 12-16",3/5
same,IP dosage marked (LD50),[1],90 (LD50) mg/kg/dose
COCC(=O)Oc1c(Cl)c(OC)nc(C(Cl)(Cl)Cl)c1Cl [DM-MA-PEN],T-C,[1]; [8],>41.0 days
same,Tumor-Free-Surv/Total,[1]; [8],5/5
same,Median % ILS (dying mice only),[2]; IP 90 mg/kg/dose,+125%
same,Tumor-Free-Surv/Total,[2]; IP 90 mg/kg/dose,1/5
same,activity against i.c.-implanted tumor (in words),[2],significant activity
same,Median % ILS (based on dying mice only),[2],126^a %
same,Survivors,[2],1/5
same,Median % ILS (dying mice only),[2]; oral (gavage) 90 mg/kg/dose,+110%
same,Tumor-Free-Surv/Total,[2]; oral (gavage) 90 mg/kg/dose,1/5
COc1nc(C(Cl)(Cl)Cl)c(Cl)c(OC(=O)c2ccc([N+](=O)[O-])cc2)c1Cl [DM-NB-PEN],T-C,"[1]; IP 135 mg/kg/dose, Days 12-16",>38.6 days
same,Tumor-Free-Surv/Total,"[1]; IP 135 mg/kg/dose, Days 12-16",5/5
COc1nc(C(Cl)(Cl)Cl)c(Cl)c(OC(=O)c2ccc([N+](=O)[O-])o2)c1Cl [DM-NF-PEN],T-C,"[1]; IP 90 mg/kg/dose, Days 12-16",>41.2 days
same,Tumor-Free-Surv/Total,"[1]; IP 90 mg/kg/dose, Days 12-16",4/5
same,Median % ILS (dying mice only),[2]; IP 135 mg/kg/dose,+59%
same,Tumor-Free-Surv/Total,[2]; IP 135 mg/kg/dose,0/5
CCCCCCCC(=O)Oc1c(Cl)c(OC)nc(C(Cl)(Cl)Cl)c1Cl [DM-O-PEN],Median % ILS (dying mice only),[2]; IP 90 mg/kg/dose,+121%
same,Tumor-Free-Surv/Total,[2]; IP 90 mg/kg/dose,0/5
same,activity against i.c.-implanted tumor (in words),[2],significant activity
same,Median % ILS (based on dying mice only),[2],121^b %
same,Survivors,[2],0/5
COc1nc(C(Cl)(Cl)Cl)c(Cl)c(OC(=O)C(C)(C)C)c1Cl [DM-P-PEN],T-C,"[1]; IP 135 mg/kg/dose, Days 11-15",>42.7 days
same,Tumor-Free-Surv/Total,"[1]; IP 135 mg/kg/dose, Days 11-15",5/5
same,T-C,[1]; [9],0.9 days
same,Tumor-Free-Surv/Total,[1]; [9],0/5
same,Median % ILS (dying mice only),[2]; IP 135 mg/kg/dose,+64%
same,Tumor-Free-Surv/Total,[2]; IP 135 mg/kg/dose,0/5
same,Median % ILS (dying mice only),[2]; oral (gavage) 135 mg/kg/dose,+20%
same,Tumor-Free-Surv/Total,[2]; oral (gavage) 135 mg/kg/dose,0/5
"COc1nc(C(Cl)(Cl)Cl)c(Cl)c(O)c1Cl [DM-PEN, 3,5-dichloro-2-methoxy-4-hydroxy-6-(trichloromethyl)pyridine]",50-DAY SURV./TOTAL,[3]; IP 60.0 mg/kg/dose,0/6
same,% ILS,[3]; IP 60.0 mg/kg/dose,+22%
same,MEDIAN DAY OF DEATH,[3]; IP 60.0 mg/kg/dose,13.5
same,50-DAY SURV./TOTAL,[3]; IP 90.0 mg/kg/dose,0/6
same,% ILS,[3]; IP 90.0 mg/kg/dose,+54%
same,50-DAY SURV./TOTAL,[3]; IP 135.0 mg/kg/dose,0/6
same,% ILS,[3]; IP 135.0 mg/kg/dose,+31%
same,MEDIAN DAY OF DEATH,[3]; IP 135.0 mg/kg/dose,14.5
same,activity as cytotoxic agents in vitro,[4],inactive
same,50-DAY SURV./TOTAL,[5]; [10],0/6
same,50-DAY SURV./TOTAL,[5]; [11],0/6
same,MEDIAN DAY OF DEATH,[5]; [11],19.0
same,50-DAY SURV./TOTAL,[5]; [12],0/6
same,APPROX. NET LOG10 CHANGE IN TUMOR BURDEN AT END OF Rx,[5]; [12],TOXIC
same,MEDIAN DAY OF DEATH,[5]; [12],8.5
same,50-DAY SURV./TOTAL,[6]; [10],0/6
same,MEDIAN DAY OF DEATH,[6]; [10],13.5
same,50-DAY SURV./TOTAL,[6]; [11],0/6
same,50-DAY SURV./TOTAL,[6]; [12],0/6
same,Lethality of the dosage (LD mark beside % ILS),[6]; [12],LD33
same,activity in this tumor model (in words),"[6]; mouse, in vivo",none of the three showed significant activity
same,cures,[2]; Table 2 conditions,not
same,Median % ILS (based on dying mice only),[2],60%
same,Survivors,[2],0/5
same,50-DAY SURV./TOTAL,[7]; IP 60.0 mg/kg/dose,0/6
same,% ILS,[7]; IP 60.0 mg/kg/dose,+33%
same,APPROX. NET LOG10 CHANGE IN TUMOR BURDEN AT END OF Rx,[7]; IP 60.0 mg/kg/dose,+0.8
same,50-DAY SURV./TOTAL,[7]; IP 90.0 mg/kg/dose,0/6
same,APPROX. NET LOG10 CHANGE IN TUMOR BURDEN AT END OF Rx,[7]; IP 90.0 mg/kg/dose,−0.6
same,MEDIAN DAY OF DEATH,[7]; IP 90.0 mg/kg/dose,14.0
same,50-DAY SURV./TOTAL,[7]; IP 135.0 mg/kg/dose,0/6
same,% ILS,[7]; IP 135.0 mg/kg/dose,+88%
same,Lethality of the dosage (LD mark beside % ILS),[7]; IP 135.0 mg/kg/dose,LD17
COc1nc(C(Cl)(Cl)Cl)c(Cl)c(OC(=O)Cc2cccs2)c1Cl [DM-TA-PEN],T-C,"[1]; IP 90 mg/kg/dose, Days 12-16",>41.2 days
same,Tumor-Free-Surv/Total,"[1]; IP 90 mg/kg/dose, Days 12-16",3/5
same,Median % ILS (dying mice only),[2]; IP 90 mg/kg/dose,+75%
same,Tumor-Free-Surv/Total,[2]; IP 90 mg/kg/dose,0/5
COc1nc(C(Cl)(Cl)Cl)c(Cl)c(OC(=O)c2cccs2)c1Cl [DM-TC-PEN],T-C,"[1]; IP 90 mg/kg/dose, Days 12-16",>41.2 days
same,Tumor-Free-Surv/Total,"[1]; IP 90 mg/kg/dose, Days 12-16",4/5
same,Median % ILS (dying mice only),[2]; IP 135 mg/kg/dose,+100%
same,Tumor-Free-Surv/Total,[2]; IP 135 mg/kg/dose,0/5
same,activity against i.c.-implanted tumor (in words),[2],significant activity
same,Median % ILS (based on dying mice only),[2],100^d %
same,Survivors,[2],0/5
COc1nc(C(Cl)(Cl)Cl)c(Cl)c(OC(=O)c2c(Cl)cc(Cl)cc2Cl)c1Cl [DM-TCB-PEN],Median % ILS (dying mice only),[2]; IP 135 mg/kg/dose,+92%
same,Tumor-Free-Surv/Total,[2]; IP 135 mg/kg/dose,1/5
"N[C@@H](Cc1ccc(N(CCCl)CCCl)cc1)C(=O)O [L-PAM (melphalan), melphalan]",50-DAY SURV./TOTAL,[5]; [13],6/6
same,50-DAY SURV./TOTAL,[5]; [14],5/6
same,% ILS,[5]; [14],+208%
same,APPROX. NET LOG10 CHANGE IN TUMOR BURDEN AT END OF Rx,[5]; [14],ca −6.8
same,MEDIAN DAY OF DEATH,[5]; [14],34.0
same,50-DAY SURV./TOTAL,[6]; [13],0/6
same,% ILS,[6]; [13],+14%
same,APPROX. NET LOG10 CHANGE IN TUMOR BURDEN AT END OF Rx,[6]; [13],−1.8
same,MEDIAN DAY OF DEATH,[6]; [13],18.0
same,50-DAY SURV./TOTAL,[6]; [14],0/6
same,% ILS,[6]; [14],+14%
same,APPROX. NET LOG10 CHANGE IN TUMOR BURDEN AT END OF Rx,[6]; [14],−1.8
same,MEDIAN DAY OF DEATH,[6]; [14],18.0
